Measurements reported in patent US9751840B2, “R-7-(3-aminomethyl-4-methoxyimino-3-methyl-pyrrolidin-1-yl)-1-cyclopropyl-6-fluoro-4-oxo-acid and L-aspartic acid salt, process for the preparation thereof and pharmaceutical composition comprising the same for antimicrobial” (ARIBIO CO. LTD., priority 2009, dated 2017).
≈ marks a conversion by molar mass, not a printed value. Like-named read-outs stand apart in the source and are kept apart here.

Legend:
[1] = In vivo tissue distribution test; design: species or system ICR mice; conditions: ICR, mouse, spleen, po, 100 mg/kg; read-out: P ratio Spleen
[2] = test system: polychromatic erythrocyte with one or more nuclei (MNPCE); assay: In vivo genotoxicity, micronucleus test; conditions: male mice, twice intraperitoneal, 30, 15, 7.5 mg/kg
Text: The following study performed to obtain in vivo genotoxicities, micronucleus test of L-aspartate and hydrochloric acid salt in male mice to the following procedure.

[3] = Stability test in distilled water; assay type: physicochemical; conditions: 30 mg in 100 ml distilled water
Solubility test = assay type: physicochemical
Male ICR mice = assay: Single dose toxicity in mice (LD50); conditions: single intraperitoneal dose, observed 14 days
Experimental: The following experiment was performed in order to observe the degree of toxicity of the L-aspartate according to the present invention.
Male ICR mice were used as experimental animals. 5 male ICR mice were divided into 6 dose groups, respectively and fasted except for water for 24 hours.

[4] = In vivo tissue distribution test; design: species or system ICR mice; conditions: mouse, po; for Kp: ICR, 100 mg/kg
Experimental: An in vivo tissue distribution test was performed in order to confirm the degree of drug distribution of the L-aspartate and hydrochloride according to the present invention in each organ. After 8-week-old ICR mice were purchased and adapted in the laboratory, each salt was orally administered to the mouse at a dose of 100 mg/kg. The mice were bled and sacrificed at a predetermined time and each organ was drawn to measure the concentration in each organ. After the administration of hydrochloride and L-aspartate, each organ concentration over time, the area under the corresponding time-concentration curve, and the ratio of permeation into tissue were shown in Tables 5 and 6.
Then, P ratio is a ratio of permeation into muscle and calculated as intramuscular AUC/intraplasmic AUC.

[5] = In vivo pharmacokinetic test; design: species or system SD rats; conditions: rats
Text: The L-aspartate and hydrochloride according to the present invention were orally or intravenously administered to SD rats, respectively and blood samples were collected at a predetermined time to compare in vivo pharmacokinetics.
Then, Cmax: maximum drug concentration, Tmax: maximum drug concentration time, T1/2: drug half-life, AUCO-t: area under the plasma concentration-time curve from time zero to t hours, and AUCO-inf: area under the plasma concentration-time curve from time zero to infinity.

[6] = male, testicle, ICR mice, p.o. 100 mg/kg, read-out: Testicle concentration
[7] = brain, ICR mice, p.o. 100 mg/kg, read-out: Brain concentration
[8] = heart, ICR mice, p.o. 100 mg/kg, read-out: Heart concentration
[9] = kidney, ICR mice, p.o. 100 mg/kg, read-out: Kidney concentration
[10] = liver, ICR mice, p.o. 100 mg/kg, read-out: Liver concentration
[11] = lung, ICR mice, p.o. 100 mg/kg, read-out: Lung concentration
[12] = muscle, ICR mice, p.o. 100 mg/kg, read-out: Muscle concentration
[13] = plasma, ICR mice, p.o. 100 mg/kg, read-out: Plasma concentration
[14] = spleen, ICR mice, p.o. 100 mg/kg, read-out: Spleen concentration
[15] = testicle, ICR mice, p.o. 100 mg/kg, read-out: Testicle concentration
[16] = thymus, ICR mice, p.o. 100 mg/kg, read-out: Thymus concentration
[17] = SD, rat, plasma, iv, i.v. 10 mg/kg
[18] = SD, rat, plasma, po, p.o. 100 mg/kg

CO/N=C1/CN(c2nc3c(cc2F)c(=O)c(C(=O)O)cn3C2CC2)C[C@@]1(C)CN [L-aspartate (Example 1)]
Kp [1]: 8.82
MNPCE number vs intact control [2]: not detected significant change
Content (%) 60? (after 3 weeks) ([3]; 60?, 3 weeks): 87.4%
Content (%) Initial ([3]; initial): 98.1%
Content (%) Room temperature (after 3 weeks) ([3]; room temperature, 3 weeks): 98.0%
Solubility relative to the hydrochloride (Solubility test; distilled water): about 2 times
solubility (Solubility test; room temperature, water): 190 mg/mL (≈ 470 mM)
Lethal dose 50 (Male ICR mice): 209 mg/kg
Kp ([4]; brain, read-out: P ratio Brain): 0.27
Kp ([4]; heart, read-out: P ratio Heart): 4.28
Kp ([4]; kidney, read-out: P ratio Kidney): 7.44
Kp ([4]; liver, read-out: P ratio Liver): 11.2
Kp ([4]; lung, read-out: P ratio Lung): 6.01
Kp ([4]; muscle, read-out: P ratio Muscle): 3.87
Kp ([4]; thymus, read-out: P ratio Thymus): 4.96
Kp ([4]; male, testicle, read-out: P ratio Testicle): 1.75
concentration at 0.5 h [4, 6]: 4940 ng/g
concentration at 1 h [4, 6]: 8820 ng/g
concentration at 8 h [4, 6]: 6970 ng/g
concentration at 0.5 h [4, 7]: 2280 ng/g
concentration at 1 h [4, 7]: 2550 ng/g
concentration at 1.5 h [4, 7]: 2340 ng/g
concentration at 2 hr [4, 7]: 2570 ng/g
concentration at 3 h [4, 7]: 2020 ng/g
concentration at 5 h [4, 7]: 1520 ng/g
concentration at 8 h [4, 7]: 330 ng/g
concentration at 0.5 h [4, 8]: 47200 ng/g
concentration at 1 h [4, 8]: 58000 ng/g
concentration at 1.5 hr [4, 8]: 50000 ng/g
concentration at 2 hr [4, 8]: 36700 ng/g
concentration at 3 h [4, 8]: 27700 ng/g
concentration at 5 h [4, 8]: 1330 ng/g
concentration at 8 h [4, 8]: 8720 ng/g
concentration at 0.5 h [4, 9]: 79200 ng/g
concentration at 1 h [4, 9]: 79200 ng/g
concentration at 1.5 h [4, 9]: 77400 ng/g
concentration at 2 hr [4, 9]: 62200 ng/g
concentration at 3 h [4, 9]: 48800 ng/g
concentration at 5 h [4, 9]: 34000 ng/g
concentration at 8 h [4, 9]: 20200 ng/g
concentration at 0.5 h [4, 10]: 128000 ng/g
concentration at 1 h [4, 10]: 114000 ng/g
concentration at 1.5 h [4, 10]: 118000 ng/g
concentration at 2 hr [4, 10]: 85400 ng/g
concentration at 3 h [4, 10]: 70800 ng/g
concentration at 5 h [4, 10]: 57400 ng/g
concentration at 8 h [4, 10]: 26600 ng/g
concentration at 0.5 h [4, 11]: 76300 ng/g
concentration at 1 h [4, 11]: 70100 ng/g
concentration at 1.5 h [4, 11]: 71500 ng/g
concentration at 2 hr [4, 11]: 52700 ng/g
concentration at 3 h [4, 11]: 38700 ng/g
concentration at 5 h [4, 11]: 24500 ng/g
concentration at 8 h [4, 11]: 11600 ng/g
concentration at 0.5 h [4, 12]: 38000 ng/g
concentration at 1 h [4, 12]: 39600 ng/g
concentration at 1.5 h [4, 12]: 37400 ng/g
concentration at 2 hr [4, 12]: 36700 ng/g
concentration at 3 h [4, 12]: 28800 ng/g
concentration at 5 h [4, 12]: 18000 ng/g
concentration at 8 h [4, 12]: 6930 ng/g
concentration at 0.5 h [4, 13]: 11600 ng/mL
concentration at 1 h [4, 13]: 12200 ng/mL
concentration at 1.5 h [4, 13]: 10700 ng/mL
concentration at 2 hr [4, 13]: 8470 ng/mL
concentration at 3 h [4, 13]: 6300 ng/mL
concentration at 5 h [4, 13]: 4620 ng/mL
concentration at 8 h [4, 13]: 1870 ng/mL
AUC(0-t) ([4]; plasma, ICR mice, p.o. 100 mg/kg, read-out: AUC0-t Plasma): 47400 ng·h/mL
concentration at 0.5 h [4, 14]: 91600 ng/g
concentration at 1 h [4, 14]: 98100 ng/g
concentration at 1.5 hr [4, 14]: 84900 ng/g
concentration at 2 hr [4, 14]: 67300 ng/g
concentration at 3 h [4, 14]: 57600 ng/g
concentration at 5 h [4, 14]: 43700 ng/g
concentration at 8 h [4, 14]: 23400 ng/g
concentration at 1.5 hr [4, 15]: 10200 ng/g
concentration at 2 hr [4, 15]: 12900 ng/g
concentration at 3 h [4, 15]: 14800 ng/g
concentration at 5 h [4, 15]: 11500 ng/g
concentration at 0.5 h [4, 16]: 26500 ng/g
concentration at 1 h [4, 16]: 48100 ng/g
concentration at 1.5 hr [4, 16]: 48800 ng/g
concentration at 2 hr [4, 16]: 40100 ng/g
concentration at 3 h [4, 16]: 39800 ng/g
concentration at 5 h [4, 16]: 25900 ng/g
concentration at 8 h [4, 16]: 12800 ng/g
AUC(0-inf) [5, 17]: 9320 ± 280 ng·h/mL
AUC(0-t) [5, 17]: 7520 ± 220 ng·h/mL
Cmax [5, 17]: 4180 ± 290 ng/mL
Tmax [5, 17]: 0 h
half-life [5, 17]: 123 ± 93 min
AUC(0-t) [5, 18]: 52700 ± 28700 ng·h/mL
Cmax [5, 18]: 9080 ± 4500 ng/mL
Tmax [5, 18]: 2.13 ± 0.63 h
BA (%) ([5]; p.o. 100 mg/kg, calculated by ratio of AUC0-t): 70.05%
